Source: article PMC8534050, “Discovery of a Potent and Highly Isoform-Selective Inhibitor of the Neglected Ribosomal Protein S6 Kinase Beta 2 (S6K2)” (Cancers, 2021)

Experiments:
Assay in all cases: DSF thermal shift assay
Assay type in all cases: binding
Settings in all cases: inhibitor 10 μM, protein 2 μM
PKMYT1 = molecular target: T1, PKMYT1 (Homo sapiens, UniProt Q99640)
T1 construct: purchased in-house DSF (thermal shift) panel per Fedorov et al; IC50 follow-up at Reaction Biology Corp
Procedure: (§1) Differences in the melting temperature (ΔTm) were measured as described by Fedorov et al.. Purified proteins were buffered in 25 mM HEPES (pH 7.5), 500 mM NaCl and were assayed in a 384-well plate with a final protein concentration of 2 μM in 10 μL assay volume. Inhibitors were added to a final concentration of 10 μM using an ECHO 550 acoustic dispenser (Labcyte, San José, CA, USA). As a fluorescence probe, SYPRO-Orange (Molecular Probes, Eugene, OR, USA) was added in a 1:5000 dilution. […] Data were analyzed through Boltzmann equation in the Protein Thermal Shift software (Applied Biosystems, Waltham, MA, USA). Samples were measured in technical duplicates.

TAF1 = molecular target: T2, TAF1 (Homo sapiens, UniProt P21675)
T2 construct: purchased in-house DSF (thermal shift) panel per Fedorov et al
Procedure: as §1

CAMK2B = molecular target: T3, CAMK2B (Homo sapiens, UniProt Q13554)
T3 construct: purchased in-house DSF (thermal shift) panel per Fedorov et al; IC50 follow-up at Reaction Biology Corp
Procedure: as §1

CHEK2 = molecular target: T4, CHEK2 (Homo sapiens, UniProt O96017)
T4 construct: purchased in-house DSF (thermal shift) panel per Fedorov et al; IC50 follow-up at Reaction Biology Corp
Procedure: as §1

GSK3B = molecular target: T5, GSK3B (Homo sapiens, UniProt P49841)
T5 construct: purchased in-house DSF (thermal shift) panel per Fedorov et al; IC50 follow-up at Reaction Biology Corp
Procedure: as §1

GPRK5 = molecular target: T6, GPRK5 (Homo sapiens, UniProt P34947)
T6 construct: purchased in-house DSF (thermal shift) panel per Fedorov et al
Procedure: as §1

DYRK2 = molecular target: T7, DYRK2 (Homo sapiens, UniProt Q92630)
T7 construct: purchased in-house DSF (thermal shift) panel per Fedorov et al
Procedure: as §1

MAP3K5 = molecular target: T8, MAP3K5 (Homo sapiens, UniProt Q99683)
T8 construct: purchased in-house DSF (thermal shift) panel per Fedorov et al
Procedure: as §1

DYRK1A = molecular target: T9, DYRK1A (Homo sapiens, UniProt Q13627)
T9 construct: purchased in-house DSF (thermal shift) panel per Fedorov et al
Procedure: as §1

MAP2K1 = molecular target: T10, MAP2K1 (Homo sapiens, UniProt Q02750)
T10 construct: purchased in-house DSF (thermal shift) panel per Fedorov et al
Procedure: as §1

FLT1 = molecular target: T11, FLT1 (Homo sapiens, UniProt P17948)
T11 construct: purchased in-house DSF (thermal shift) panel per Fedorov et al
Procedure: as §1

EPHA2 = molecular target: T12, EPHA2 (Homo sapiens, UniProt P29317)
T12 construct: purchased in-house DSF (thermal shift) panel per Fedorov et al
Procedure: as §1

RIOK2 = molecular target: T13, RIOK2 (Homo sapiens, UniProt Q9BVS4)
T13 construct: purchased in-house DSF (thermal shift) panel per Fedorov et al; IC50 follow-up at Reaction Biology Corp
Procedure: as §1

BMP2K = molecular target: T14, BMP2K (Homo sapiens, UniProt Q9NSY1)
T14 construct: purchased in-house DSF (thermal shift) panel per Fedorov et al
Procedure: as §1

AAK1 = molecular target: T15, AAK1 (Homo sapiens, UniProt Q2M2I8)
T15 construct: purchased in-house DSF (thermal shift) panel per Fedorov et al; IC50 follow-up at Reaction Biology Corp
Procedure: as §1

NEK7 = molecular target: T16, NEK7 (Homo sapiens, UniProt Q8TDX7)
T16 construct: purchased in-house DSF (thermal shift) panel per Fedorov et al
Procedure: as §1

PIM3 = molecular target: T17, PIM3 (Homo sapiens, UniProt Q86V86)
T17 construct: purchased in-house DSF (thermal shift) panel per Fedorov et al; IC50 follow-up at Reaction Biology Corp
Procedure: as §1

MAPK10 = molecular target: T18, MAPK10 (Homo sapiens, UniProt P53779)
T18 construct: purchased in-house DSF (thermal shift) panel per Fedorov et al
Procedure: as §1

CLK3 = molecular target: T19, CLK3 (Homo sapiens, UniProt P49761)
T19 construct: purchased in-house DSF (thermal shift) panel per Fedorov et al
Procedure: as §1

MAP2K6 = molecular target: T20, MAP2K6 (Homo sapiens, UniProt P52564)
T20 construct: purchased in-house DSF (thermal shift) panel per Fedorov et al
Procedure: as §1

GAK = molecular target: T21, GAK (Homo sapiens, UniProt O14976)
T21 construct: purchased in-house DSF (thermal shift) panel per Fedorov et al; IC50 follow-up at Reaction Biology Corp
Procedure: as §1

BRD4 = molecular target: T22, BRD4 (Homo sapiens, UniProt O60885)
T22 construct: purchased in-house DSF (thermal shift) panel per Fedorov et al; IC50 follow-up at Reaction Biology Corp
Procedure: as §1

PDK4 = molecular target: T23, PDK4 (Homo sapiens, UniProt Q16654)
T23 construct: purchased in-house DSF (thermal shift) panel per Fedorov et al; IC50 follow-up at Reaction Biology Corp
Procedure: as §1

AURKB = molecular target: T24, AURKB (Homo sapiens, UniProt Q96GD4)
T24 construct: purchased in-house DSF (thermal shift) panel per Fedorov et al
Procedure: as §1

ABL1 = molecular target: T25, ABL1 (Homo sapiens, UniProt P00519)
T25 construct: purchased in-house DSF (thermal shift) panel per Fedorov et al; IC50 follow-up at Reaction Biology Corp
Procedure: as §1

ULK3 = molecular target: T26, ULK3 (Homo sapiens, UniProt Q6PHR2)
T26 construct: purchased in-house DSF (thermal shift) panel per Fedorov et al
Procedure: as §1

DAPK3 = molecular target: T27, DAPK3 (Homo sapiens, UniProt O43293)
T27 construct: purchased in-house DSF (thermal shift) panel per Fedorov et al
Procedure: as §1

MAPK1 = molecular target: T28, MAPK1 (Homo sapiens, UniProt P28482)
T28 construct: purchased in-house DSF (thermal shift) panel per Fedorov et al; IC50 follow-up at Reaction Biology Corp
Procedure: as §1

STK17 = molecular target: T29, STK17 (Homo sapiens, UniProt Q9UEE5)
T29 construct: purchased in-house DSF (thermal shift) panel per Fedorov et al
Procedure: as §1

FES = molecular target: T30, FES (Homo sapiens, UniProt P07332)
T30 construct: purchased in-house DSF (thermal shift) panel per Fedorov et al; IC50 follow-up at Reaction Biology Corp
Procedure: as §1

MAPK9 = molecular target: T31, MAPK9 (Homo sapiens, UniProt P45984)
T31 construct: purchased in-house DSF (thermal shift) panel per Fedorov et al
Procedure: as §1

PAK4 = molecular target: T32, PAK4 (Homo sapiens, UniProt O96013)
T32 construct: purchased in-house DSF (thermal shift) panel per Fedorov et al
Procedure: as §1

CSNK1D = molecular target: T33, CSNK1D (Homo sapiens, UniProt P48730)
T33 construct: purchased in-house DSF (thermal shift) panel per Fedorov et al
Procedure: as §1

TOPK = molecular target: T34, TOPK (Homo sapiens, UniProt Q96KB5)
T34 construct: purchased in-house DSF (thermal shift) panel per Fedorov et al
Procedure: as §1

MELK = molecular target: T35, MELK (Homo sapiens, UniProt Q14680)
T35 construct: purchased in-house DSF (thermal shift) panel per Fedorov et al
Procedure: as §1

MAP2K4 = molecular target: T36, MAP2K4 (Homo sapiens, UniProt P45985)
T36 construct: purchased in-house DSF (thermal shift) panel per Fedorov et al
Procedure: as §1

AKT3 = molecular target: T37, AKT3 (Homo sapiens, UniProt Q9Y243)
T37 construct: purchased in-house DSF (thermal shift) panel per Fedorov et al
Procedure: as §1

MST3 = molecular target: T38, MST3 (Homo sapiens, UniProt Q9Y6E0)
T38 construct: purchased in-house DSF (thermal shift) panel per Fedorov et al
Procedure: as §1

PHKG2 = molecular target: T39, PHKG2 (Homo sapiens, UniProt P15735)
T39 construct: purchased in-house DSF (thermal shift) panel per Fedorov et al
Procedure: as §1

SRPK1 = molecular target: T40, SRPK1 (Homo sapiens, UniProt Q96SB4)
T40 construct: purchased in-house DSF (thermal shift) panel per Fedorov et al
Procedure: as §1

T36 sequence (P45985 whole entry): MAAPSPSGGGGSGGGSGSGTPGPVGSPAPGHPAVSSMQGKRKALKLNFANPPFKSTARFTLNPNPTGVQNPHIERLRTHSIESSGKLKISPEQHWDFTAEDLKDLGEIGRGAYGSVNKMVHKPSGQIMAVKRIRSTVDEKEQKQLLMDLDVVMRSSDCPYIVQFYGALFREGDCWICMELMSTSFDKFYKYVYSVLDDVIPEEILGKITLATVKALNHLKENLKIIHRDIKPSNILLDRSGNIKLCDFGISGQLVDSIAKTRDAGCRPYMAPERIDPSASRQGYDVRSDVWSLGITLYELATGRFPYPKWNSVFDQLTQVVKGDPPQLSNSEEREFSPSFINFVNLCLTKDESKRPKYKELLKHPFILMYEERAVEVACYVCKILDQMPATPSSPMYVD
T38 sequence (Q9Y6E0 whole entry): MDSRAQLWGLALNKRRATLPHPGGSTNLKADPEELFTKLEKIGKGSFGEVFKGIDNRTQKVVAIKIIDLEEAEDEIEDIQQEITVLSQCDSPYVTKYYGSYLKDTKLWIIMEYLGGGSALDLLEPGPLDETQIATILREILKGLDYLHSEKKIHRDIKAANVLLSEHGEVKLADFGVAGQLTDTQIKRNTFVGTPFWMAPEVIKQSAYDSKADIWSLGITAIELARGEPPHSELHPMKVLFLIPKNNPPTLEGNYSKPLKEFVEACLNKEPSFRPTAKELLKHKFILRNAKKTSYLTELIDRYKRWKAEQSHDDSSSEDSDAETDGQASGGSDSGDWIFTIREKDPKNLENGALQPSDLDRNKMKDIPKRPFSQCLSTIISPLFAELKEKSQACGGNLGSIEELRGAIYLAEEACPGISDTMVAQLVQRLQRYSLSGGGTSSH
T13 sequence (Q9BVS4 whole entry): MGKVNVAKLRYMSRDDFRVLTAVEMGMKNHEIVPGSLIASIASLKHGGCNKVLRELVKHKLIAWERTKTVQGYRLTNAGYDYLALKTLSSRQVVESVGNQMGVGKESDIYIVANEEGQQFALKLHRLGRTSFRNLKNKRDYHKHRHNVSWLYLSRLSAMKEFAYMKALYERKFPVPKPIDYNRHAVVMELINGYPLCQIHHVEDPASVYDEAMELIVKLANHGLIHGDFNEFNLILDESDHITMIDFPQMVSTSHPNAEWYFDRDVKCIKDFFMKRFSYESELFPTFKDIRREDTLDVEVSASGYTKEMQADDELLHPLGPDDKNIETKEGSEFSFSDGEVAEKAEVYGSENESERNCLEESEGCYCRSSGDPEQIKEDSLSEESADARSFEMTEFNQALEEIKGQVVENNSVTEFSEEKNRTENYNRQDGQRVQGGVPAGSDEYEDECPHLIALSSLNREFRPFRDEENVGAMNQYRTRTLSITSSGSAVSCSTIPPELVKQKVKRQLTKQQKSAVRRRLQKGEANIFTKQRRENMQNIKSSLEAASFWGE
T33 sequence (P48730 whole entry): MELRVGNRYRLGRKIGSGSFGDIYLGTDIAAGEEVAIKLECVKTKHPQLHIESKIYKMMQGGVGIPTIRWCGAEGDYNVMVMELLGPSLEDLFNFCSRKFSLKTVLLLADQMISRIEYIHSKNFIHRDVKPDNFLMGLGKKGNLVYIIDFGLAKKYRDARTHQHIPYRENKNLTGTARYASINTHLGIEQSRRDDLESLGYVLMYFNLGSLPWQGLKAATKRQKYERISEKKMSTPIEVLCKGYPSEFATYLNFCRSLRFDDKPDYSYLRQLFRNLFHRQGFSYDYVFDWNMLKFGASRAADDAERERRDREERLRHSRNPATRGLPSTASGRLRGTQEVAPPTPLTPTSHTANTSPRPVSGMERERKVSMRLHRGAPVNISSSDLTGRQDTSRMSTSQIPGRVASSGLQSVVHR
T25 sequence (P00519 whole entry): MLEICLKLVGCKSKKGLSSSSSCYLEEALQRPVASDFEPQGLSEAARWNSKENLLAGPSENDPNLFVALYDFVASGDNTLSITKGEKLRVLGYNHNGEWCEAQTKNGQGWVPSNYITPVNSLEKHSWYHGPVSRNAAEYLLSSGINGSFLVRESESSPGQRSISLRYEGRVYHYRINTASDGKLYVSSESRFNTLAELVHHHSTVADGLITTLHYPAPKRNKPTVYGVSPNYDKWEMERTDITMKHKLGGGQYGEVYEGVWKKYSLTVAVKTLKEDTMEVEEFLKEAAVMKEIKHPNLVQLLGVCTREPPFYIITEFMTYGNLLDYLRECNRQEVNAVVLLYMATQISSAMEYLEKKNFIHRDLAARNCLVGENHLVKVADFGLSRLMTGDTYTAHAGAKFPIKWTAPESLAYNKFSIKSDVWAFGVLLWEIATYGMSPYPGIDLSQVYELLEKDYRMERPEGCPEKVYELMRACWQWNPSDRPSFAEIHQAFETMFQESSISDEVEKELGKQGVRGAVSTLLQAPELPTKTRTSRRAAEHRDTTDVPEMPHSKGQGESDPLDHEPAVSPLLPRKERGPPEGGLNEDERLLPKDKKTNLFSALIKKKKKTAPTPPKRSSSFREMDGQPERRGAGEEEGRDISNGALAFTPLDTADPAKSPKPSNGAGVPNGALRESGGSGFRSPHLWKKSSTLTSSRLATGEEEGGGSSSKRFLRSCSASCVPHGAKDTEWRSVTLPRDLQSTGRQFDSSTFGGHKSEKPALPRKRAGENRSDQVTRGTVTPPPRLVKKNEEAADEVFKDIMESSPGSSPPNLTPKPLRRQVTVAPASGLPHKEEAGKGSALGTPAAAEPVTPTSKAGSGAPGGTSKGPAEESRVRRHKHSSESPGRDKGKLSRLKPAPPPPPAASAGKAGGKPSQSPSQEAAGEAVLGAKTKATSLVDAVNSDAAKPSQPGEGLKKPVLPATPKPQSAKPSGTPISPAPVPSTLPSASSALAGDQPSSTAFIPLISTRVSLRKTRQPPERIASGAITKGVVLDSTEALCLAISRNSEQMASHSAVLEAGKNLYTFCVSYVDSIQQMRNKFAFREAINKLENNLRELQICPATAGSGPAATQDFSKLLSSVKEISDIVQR
T39 sequence (P15735 whole entry): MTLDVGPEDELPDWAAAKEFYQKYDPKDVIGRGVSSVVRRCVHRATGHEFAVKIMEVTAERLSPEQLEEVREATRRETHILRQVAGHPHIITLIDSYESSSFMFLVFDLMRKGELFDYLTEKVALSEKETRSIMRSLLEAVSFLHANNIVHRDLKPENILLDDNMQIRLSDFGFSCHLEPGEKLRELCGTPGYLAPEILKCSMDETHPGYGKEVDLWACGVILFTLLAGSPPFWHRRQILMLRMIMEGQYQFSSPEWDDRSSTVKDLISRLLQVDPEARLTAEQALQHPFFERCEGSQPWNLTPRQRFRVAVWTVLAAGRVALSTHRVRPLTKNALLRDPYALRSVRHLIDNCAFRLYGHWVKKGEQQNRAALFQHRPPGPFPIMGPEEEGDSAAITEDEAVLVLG
T24 sequence (Q96GD4 whole entry): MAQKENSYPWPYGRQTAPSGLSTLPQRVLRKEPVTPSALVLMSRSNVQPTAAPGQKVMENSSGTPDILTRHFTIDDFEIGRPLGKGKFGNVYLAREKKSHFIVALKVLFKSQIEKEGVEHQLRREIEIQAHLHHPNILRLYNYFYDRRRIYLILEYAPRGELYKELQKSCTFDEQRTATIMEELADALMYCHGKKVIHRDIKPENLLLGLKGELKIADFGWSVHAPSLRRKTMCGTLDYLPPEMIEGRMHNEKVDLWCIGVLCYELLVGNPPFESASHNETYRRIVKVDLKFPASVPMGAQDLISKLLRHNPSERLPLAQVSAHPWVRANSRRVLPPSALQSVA
T35 sequence (Q14680 whole entry): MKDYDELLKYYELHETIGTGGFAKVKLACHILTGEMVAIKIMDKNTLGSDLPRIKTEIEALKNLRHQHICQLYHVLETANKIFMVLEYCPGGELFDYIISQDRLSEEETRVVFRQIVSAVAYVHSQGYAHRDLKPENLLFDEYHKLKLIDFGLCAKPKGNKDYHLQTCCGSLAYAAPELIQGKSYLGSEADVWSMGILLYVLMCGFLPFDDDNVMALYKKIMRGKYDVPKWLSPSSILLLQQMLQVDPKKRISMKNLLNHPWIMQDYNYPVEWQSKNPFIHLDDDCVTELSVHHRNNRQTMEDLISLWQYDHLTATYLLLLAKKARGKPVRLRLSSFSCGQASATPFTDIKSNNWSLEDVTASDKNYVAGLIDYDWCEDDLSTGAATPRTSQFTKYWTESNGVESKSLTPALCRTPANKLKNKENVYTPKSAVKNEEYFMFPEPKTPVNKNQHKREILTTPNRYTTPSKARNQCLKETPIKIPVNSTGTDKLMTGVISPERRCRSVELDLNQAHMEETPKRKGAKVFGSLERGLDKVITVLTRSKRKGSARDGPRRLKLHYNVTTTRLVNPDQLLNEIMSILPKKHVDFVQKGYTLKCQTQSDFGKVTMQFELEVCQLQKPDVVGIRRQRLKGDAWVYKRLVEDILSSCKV
T4 sequence (O96017 whole entry): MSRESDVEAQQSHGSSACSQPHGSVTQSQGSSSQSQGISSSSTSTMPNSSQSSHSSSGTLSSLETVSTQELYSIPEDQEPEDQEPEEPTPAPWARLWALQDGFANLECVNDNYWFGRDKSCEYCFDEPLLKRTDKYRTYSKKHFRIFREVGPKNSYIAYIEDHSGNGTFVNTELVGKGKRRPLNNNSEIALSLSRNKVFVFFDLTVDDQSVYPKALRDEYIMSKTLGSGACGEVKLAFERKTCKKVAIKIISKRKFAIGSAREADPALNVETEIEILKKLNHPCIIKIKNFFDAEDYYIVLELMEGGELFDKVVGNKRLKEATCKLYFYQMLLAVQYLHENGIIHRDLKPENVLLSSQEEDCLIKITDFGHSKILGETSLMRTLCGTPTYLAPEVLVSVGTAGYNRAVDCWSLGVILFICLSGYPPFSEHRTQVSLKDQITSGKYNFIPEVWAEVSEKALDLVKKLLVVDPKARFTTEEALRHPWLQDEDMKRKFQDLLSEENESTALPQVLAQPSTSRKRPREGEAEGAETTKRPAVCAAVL

CCc1cnc(Nc2nc(Cl)ccc2[N+](=O)[O-])nc1N1CCN(Cc2nc3cc(C(F)(F)F)ccc3[nH]2)CC1 [Compound 2]
ΔTm at 10 µM (PKMYT1): -1 °C
ΔTm at 10 µM (TAF1): 0.1 °C
ΔTm at 10 µM (CAMK2B): -2.3 °C
ΔTm at 10 µM (CHEK2): 0.4 °C
ΔTm at 10 µM (GSK3B): 0.4 °C
ΔTm at 10 µM (GPRK5): -0.6 °C
ΔTm at 10 µM (DYRK2): 0.1 °C
ΔTm at 10 µM (MAP3K5): 0.2 °C
ΔTm at 10 µM (DYRK1A): -2.4 °C
ΔTm at 10 µM (MAP2K1): -0.3 °C
ΔTm at 10 µM (FLT1): 0.1 °C
ΔTm at 10 µM (EPHA2): 0.3 °C
ΔTm at 10 µM (RIOK2): -0.8 °C
ΔTm at 10 µM (BMP2K): 0 °C
ΔTm at 10 µM (AAK1): -0.2 °C
ΔTm at 10 µM (NEK7): 0.2 °C
ΔTm at 10 µM (PIM3): -0.6 °C
ΔTm at 10 µM (MAPK10): 0.1 °C
ΔTm at 10 µM (CLK3): 0.1 °C
ΔTm at 10 µM (MAP2K6): 0.5 °C
ΔTm at 10 µM (GAK): -0.6 °C
ΔTm at 10 µM (BRD4): -1 °C
ΔTm at 10 µM (PDK4): -0.1 °C
ΔTm at 10 µM (AURKB): 0 °C
ΔTm at 10 µM (ABL1): 0.6 °C
ΔTm at 10 µM (ULK3): 0.4 °C
ΔTm at 10 µM (DAPK3): 0.9 °C
ΔTm at 10 µM (MAPK1): -0.2 °C
ΔTm at 10 µM (STK17): -0.7 °C
ΔTm at 10 µM (FES): 0 °C
ΔTm at 10 µM (MAPK9): 0 °C
ΔTm at 10 µM (PAK4): 0.8 °C
ΔTm at 10 µM (CSNK1D): 0.2 °C
ΔTm at 10 µM (TOPK): -0.5 °C
ΔTm at 10 µM (MELK): 0.4 °C
ΔTm (MAP2K4): > 2 °C
ΔTm at 10 µM (MAP2K4): 3 °C
ΔTm at 10 µM (AKT3): 0.2 °C
ΔTm at 10 µM (MST3): -0.3 °C
ΔTm at 10 µM (PHKG2): 0.2 °C
ΔTm at 10 µM (SRPK1): 0 °C
